Tests used:
human CB1 receptor = human CB1 receptor (Homo sapiens (Human), UniProt P21554); assay: Receptor binding assay, CB1 ([3H]CP 55,940 displacement); conditions: as repeated in the anti-inflammatory table; read-out: CB-1 Ki
Procedure: (§1) The assays were carried out in 96 well plates obtained from Millipore, Inc. fitted with glass fiber filters (hydrophilic, GFC filters) having a pore size of 1.2μ. The filters were soaked with 0.05% polyethyleneimine solution and washed 5× with deionized water prior to carrying out the assays. The filtrations were carried out on a 96 well vacuum manifold (Millipore Inc.), the filters punched out with a pipette tip directly into scintillation vials at the end of the experiment and vials filled with 5 ml scintillation cocktail Ecolite (+) (Fisher Scientific). Counting was carried out on a Beckmann Scintillation Counter model LS6500. Drug solutions were prepared in DMSO and the radioligand was dissolved in ethanol.
(§2) 50 mM TRIS-HCl, 5 mM MgCl2, 2.5 mM EDTA, 0.5 mg/ml fatty acid free bovine serum albumin, pH 7.4.
(§3) The membranes were filtered and the filters washed 7× with 0.2 ml ice-cold incubation buffer and allowed to air dry under vacuum.
(§4) Final data are presented as Ki±S.E.M. of n≧3 experiments.

human CB2 receptor = human CB2 receptor (Homo sapiens (Human), UniProt P34972); assay: Receptor binding assay, CB2 ([3H]CP 55,940 displacement); conditions: for Ki: as repeated in the anti-inflammatory table, read-out: CB-2 Ki; for CB1/CB2: ratio of Ki CB-1 to Ki CB-2
Procedure: as §1, §2, §3, §4

NF-κB = NF-κB SEAP reporter assay in TNF-α treated A549 cells; type: cell-based; conditions: Homo sapiens, read-out: NF-κB Reduction; for inhibition at 0.1 µM: A549, 18 h
Procedure: (§5) Human lung adenocarcinoma cell line A549 (alveolar type II epithelial-like) cells (ATCC, Manassas, Va.) were maintained in growth media consisting of DMEM supplemented with 10% heat-inactivated fetal calf serum, 2 mM L-glutamine, 100 U/ml penicillin, and 100 μg/ml streptomycin.
The plasmid pNF-κB-SEAP-NPT was kindly provided by Dr. Y. S. Kim of the Seoul National University. This plasmid contains a secreted alkaline phosphatase (SEAP) reporter gene coupled with the κB response element. Upon activation, NF-κB translocates to the nucleus and binds to the κB response element causing transcriptional activation. This activation drives production of the SEAP reporter, which is secreted into the cell culture supernatant where it can be measured. The neomycin phosphotransferase (NPT) region of the plasmid provides resistance to the antibiotic G-418.
A549 cells were stably transfected with pNF-κB-SEAP-NPT using GeneJammer Transfection Reagent (Stratagene, La Jolla, Calif.) per manufacturer's protocol. G-418 (500 μg/ml) was added 24 hrs after transfection to select for stable transfection of NF-κB. Resistant colonies were selected and maintained in growth media supplemented with 500 μg/ml G-418.
Previous experiments have shown A549 cells respond to the pro-inflammatory cytokine TNF-α by activation of the pro-inflammatory transcription factor, NF-κB. This effect is dose dependent with the maximum effect seen at 10 ng/mL TNF-α. Compounds with anti-inflammatory activity can be used to inhibit this activation of NF-κB.
One day prior to treatment, transfected cells were seeded in 24 well culture plates at 6×10^4 cells/well in 1 mL of DMEM containing 1% FCS. On the day of treatment, media was aspirated. Following PBS wash, 1 mL of media containing 1% FCS, 10 ng/mL TNF-α, and varying concentrations of test compounds was added. Cell culture supernatant was collected at 18 hours. SEAP production was measured in 50 μL of supernatant using the Great EscAPe™ chemiluminescence kit (Clontech, Mountain View, Calif.). Briefly, samples were incubated at 65° C. for 30 minutes to inactivate endogenous alkaline phosphate. Following a 5-minute equilibration with assay buffer, chemiluminescent substrate and enhancer was added. Chemiluminescence was measured after 10 minutes. Higher levels of chemiluminescence result from increased SEAP production and correspond to NF-κB activity. Compounds capable of inhibiting NF-κB activation due to TNF-α are determined by a reduction in chemiluminescence values when cells are treated with TNF-α and test compound versus cells treated with TNF-α alone.

CXCL-8 = CXCL-8 level in supernatant of TNF-α treated A549 cells (multiplex bead immunoassay); type: cell-based, human; conditions: A549, 10 ng/mL TNF-α, 18 hours
Procedure: as §5
(§6) One day prior to treatment, A549 cells were seeded in 24 well culture plates at 6×10^4 cells/well in 1 mL of DMEM containing 1% FCS. On the day of treatment, media was aspirated. Following PBS wash, 1 mL of media containing 1% FCS, 10 ng/mL TNF-α, and varying concentrations of test compounds was added. Samples were collected at 18 hours and immediately transferred to −80° C. until the day of analysis.
(§7) Levels of IL-6 and CXCL-8 were measured in cell culture supernatant using the Multiplex Bead Immunoassay Kit (Biosource, Camarillo, Calif.) paired with the Luminex® 200™ System. Standard solutions were prepared by serial dilution in a 50% media, 50% buffer solution so that they were in the same matrix as the samples. Standards and samples were mixed with a solution containing beads coated with capture antibodies specific for IL-6 and CXCL-8. Each capture antibody is bound to a specific bead population with a known internal fluorescence. The Luminex system can differentiate between internal fluorescence of beads allowing detection of multiple analytes in the same well. Following overnight incubation to allow complexation of protein with capture antibodies, wells were washed and beads resuspended in assay buffer. Biotinylated reporter antibodies specific for IL-6 and CXCL-8 were added and incubated for 1.5 hours. Unbound antibodies were removed by washing, and Streptavidin-Phycoerythrin (PE) was added and incubated 30 minutes. Streptavidin binds to biotin on the reporter antibodies. Unbound reagents were removed and samples were analyzed by the Luminex system. This system utilizes a flow cytometry system and lasers capable of exciting the internal dyes of the beads and PE. The machine separates signals from beads with different internal fluorescence and measures fluorescence intensity from PE bound to these beads through protein-antibody interactions. This fluorescence intensity is reported as the median of 100 beads per cytokine in each well. Concentrations were interpolated by fitting fluorescence intensity from unknowns to the standard curves.
(§8) Cells treated with the pro-inflammatory cytokine TNF-α increase production of IL-6 and CXCL-8 when compared to cells not treated with TNF-α. Cells treated with anti-inflammatory compounds block the inflammatory effect of TNF-α and produce IL-6 and CXCL-8 levels similar to cells that are not treated with TNF-α.

CCL-2 = CCL-2 reduction in TNF-α treated A549 cells; type: cell-based, human; conditions: A549, 10 ng/mL TNF-α
IL-6 = IL-6 level in supernatant of TNF-α treated A549 cells (multiplex bead immunoassay); type: cell-based, human; conditions: 100 nM compound; A549, 10 ng/mL TNF-α, 18 hours
Procedure: as §5, §6, §7, §8

[1] = test system: DU-145 prostate cancer cells; assay: Anti-cancer activity, WST-8 cell viability, DU-145; type: cell-based; conditions: Homo sapiens, DU-145, 18 h, read-out: DU-145 prostate EC50 (μM)
Procedure: (§9) A representative group of compounds (shown below) was tested for anti-cancer activity against human lung (DMS-135 and H69AR), prostate (DU-145), colorectal (HCT-15), and pancreatic (BxPC-3) cancer cell lines using the methodology described below, providing results shown in Table 3.
(§10) Human cancer cells DU-145, DMS-135, H69AR, HCT-15, and BxPC-3 (American Type Culture Collection, ATCC) were cultured in supplemented media according to the recommendations of the supplier. Cells lines were plated in 96-well flat-bottom plates at 70% confluency in a 100 μl total volume of supplemented media as indicated, and incubated overnight at 37° C. to allow for adherence. The cultures were inoculated with escalating amounts of drug and cell death was analyzed at 18 hours, using the BioTek Synergy 2 Multidetection Microplate Reader. The percentage of viable cells present in the culture at each time point was calculated by comparing the absorbance value at 450 nm from the WST-8 assay (Pojindo Molecular Technologies) for each condition with untreated control cells.

[2] = test system: DMS-135 lung cancer cells; assay: Anti-cancer activity, WST-8 cell viability, DMS-135; type: cell-based; conditions: Homo sapiens, 18 h, read-out: DMS-135 lung EC50 (μM)
Procedure: as §9, §10

H69AR lung cancer cells = assay: Anti-cancer activity, WST-8 cell viability, H69AR; type: cell-based; conditions: Homo sapiens, 18 h, read-out: H69AR lung EC50 (μM)
Procedure: as §9, §10

[3] = test system: HCT-15 colorectal cancer cells; assay: Anti-cancer activity, WST-8 cell viability, HCT-15; type: cell-based; conditions: Homo sapiens, HCT-15, 18 h, read-out: HCT-15 colorectal EC50 (μM)
Procedure: as §9, §10

[4] = test system: BxPC-3 pancreatic cancer cells; assay: Anti-cancer activity, WST-8 cell viability, BxPC-3; type: cell-based; conditions: Homo sapiens, BXPC-3, 18 h, read-out: BxPC-3 pancreatic EC50 (μM)
Procedure: as §9, §10

Sequence of human CB1 receptor (P21554 whole entry): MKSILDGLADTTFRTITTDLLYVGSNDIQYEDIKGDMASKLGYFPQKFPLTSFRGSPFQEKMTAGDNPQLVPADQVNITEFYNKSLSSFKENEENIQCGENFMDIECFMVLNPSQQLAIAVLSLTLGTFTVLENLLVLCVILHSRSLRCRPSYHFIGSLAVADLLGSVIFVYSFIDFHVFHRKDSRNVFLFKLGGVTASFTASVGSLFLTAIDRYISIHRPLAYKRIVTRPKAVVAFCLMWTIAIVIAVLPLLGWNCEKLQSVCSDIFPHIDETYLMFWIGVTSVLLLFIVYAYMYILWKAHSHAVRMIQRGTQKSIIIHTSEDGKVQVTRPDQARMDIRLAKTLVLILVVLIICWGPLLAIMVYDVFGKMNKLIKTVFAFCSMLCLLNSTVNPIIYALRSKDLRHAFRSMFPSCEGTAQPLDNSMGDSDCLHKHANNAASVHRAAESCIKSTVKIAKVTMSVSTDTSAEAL

Q: Which Ki (human CB1 receptor) does the source give for `Cc1cccc(-c2c(O)cc(C(=O)c3ccccc3)cc2O)c1` [Compound 26, (2,6-Dihydroxy-3′-methyl-biphenyl-4-yl)-phenyl-methanone] here?
A: 983 nM

Q: What about the Ki (human CB2 receptor) of the same compound?
A: 159 ± 2.92 nM

Q: And the CB1/CB2 (human CB2 receptor)?
A: 6.18

Q: And the inhibition at 0.1 µM (NF-κB)?
A: 67 ± 9%

Q: And the “CXCL-8 Reduction” value (CXCL-8; 100 nM compound)?
A: 59 ± 5%

Q: What about the “CCL-2 Reduction” value (CCL-2; 100 nM compound) of the same compound?
A: 61 ± 19%

Q: For `COc1cc(C(=O)c2ccccc2)cc(O)c1-c1cccc(C)c1` [Compound 27, (2-Hydroxy-6-methoxy-3′-methyl-biphenyl-4-yl)-phenyl-methanone], which Ki (human CB1 receptor) is on record?
A: > 1000 nM

Q: And the Ki (human CB2 receptor)?
A: 225 nM

Q: What about the CB1/CB2 (human CB2 receptor) of the same compound?
A: 4.44

Q: And the inhibition at 0.001 µM (NF-κB; 1 nM compound, A549, 10 ng/mL TNF-α, 18 hours)?
A: 45%

Q: What about the inhibition at 0.01 µM (NF-κB; 10 nM compound, A549, 10 ng/mL TNF-α, 18 hours) of the same compound?
A: 38 ± 10%

Q: And the “CXCL-8 Reduction” value (CXCL-8; 1 nM compound)?
A: 50%

Q: What about the “CXCL-8 Reduction” value (CXCL-8; 10 nM compound) of the same compound?
A: 27 ± 15%

Q: And the “CCL-2 Reduction” value (CCL-2; 10 nM compound)?
A: 32 ± 9%

Q: Which results are given for `COc1cc(C(=O)c2ccccc2)cc(O)c1-c1cc(Cl)cc(Cl)c1` [Compound 29, (3′,5′-dichloro-2-hydroxy-6-methoxybiphenyl-4-yl)(phenyl)methanone]?
A: Ki (human CB1 receptor): > 1000 nM; Ki (human CB2 receptor): 4.77 nM; CB1/CB2 (human CB2 receptor): 209; inhibition at 0.1 µM (NF-κB): 50%; IL-6 Reduction (IL-6): <5%; CXCL-8 Reduction (CXCL-8; 100 nM compound): <10%; EC50 [1]: 1.5 µM; EC50 [2]: 2.8 µM; EC50 (H69AR lung cancer cells): 1.3 µM; EC50 [3]: 2.9 µM; EC50 [4]: 9.3 µM
